Test results as given in patent US9480671B2, “Reduction of risk of obesity” (Nestec S.A., priority 2009, dated 2016).

Experiments:
[1] = generally observed, estimated; cited from earlier work
[2] = Fatty acid composition in plasma phospholipids of guinea pig pups after suckling/weaning diet; format: in vivo; settings: compared to the control group, Table 2
Excerpt: (§1) This example investigates the effect of feeding diets supplemented or not with ARA to newborn guinea pig pups on the development of total fat mass of the pups in the post-weaning period. The infant guinea pig is considered to be a good animal model to study the development fat mass in human infants: Indeed, like newborn human infants, guinea pig pups are born with an appreciable amount of body fat whilst newborn rat and mice pups are very lean. Newborn male guinea pigs were divided into two groups with 20 animals per group. Each group was fed a suckling/weaning diet in which 44% of the energy was supplied by fat for 21 days. The different diets were isocaloric and differed only in their ARA contents. The ARA diet contained 1.5% ARA based on total fatty acids and the control diet contained no ARA. The group receiving ARA diet is coded “ARA diet” or “+AA” in the below and in the figures. The group receiving no ARA is coded “control diet” or −AA″ in the below and in the figures. The levels of linoleic acid and α-linolenic acid were kept relatively constant between the diets such that the ratio of linoleic acid to α-linolenic acid was about 35. […] Body weight and fat mass were recorded at days 21, 51, 79, 107, 128 and 136 and plasma fatty acid composition, and plasma insulin concentrations were recorded at day 21 and day 136.

[3] = Fatty acid composition in plasma triglycerides of guinea pig pups after suckling/weaning diet; format: in vivo; settings: compared to the control group, Table 3
Excerpt: as §1

clonal preadipocytes = settings: compared to PPAR agonists or saturated, mono-unsaturated and n-3 polyunsaturated fatty acids; cited from earlier work

incorporation of ARA in plasma phospholipids [2]	incorporation of ARA in plasma triglycerides [3]	SMILES	maximum amount of ARA in the diet that does not induce adverse effects [1]	differentiation of clonal preadipocytes (clonal preadipocytes)
higher	higher	CCCCC/C=C\C/C=C\C/C=C\C/C=C\CCCC(=O)O [ARA, arachidonic acid (C20:4n-6)]	about 100 mg ARA/kg/day	substantially promoted
–	–	CCCCC[C@H](O)/C=C/[C@@H]1[C@H]2C/C(=C/CCCC(=O)O)C[C@H]2C[C@H]1O [carbacyclin, reference compound]	–	mimicked
